Results reported in patent US20240000075A1, “FUNGICIDAL ARYL AMIDINES” (CORTEVA AGRISCIENCE LLC, priority 2020, published 2024).
Like-named read-outs stand apart in the source and are kept apart here.

Key:
[1] = tested on: Puccinia triticina; experiment: Wheat brown rust, whole-plant fungicidal activity (PUCCRT); assay type: in vivo, Puccinia triticina on wheat plants (variety 'Yuma'); settings: 24 h, 1DP (1 day protectant), read-out: % Disease Control Rating PUCCRT
Description: Technical grades of materials were dissolved in acetone, which were then mixed with nine volumes of water (H2O) containing 110 ppm Triton X-100. The fungicide solutions were applied onto wheat seedlings using an automated booth sprayer to run-off. All sprayed plants were allowed to air dry prior to further handling. All fungicides were evaluated using the aforementioned method for their activity vs. all target diseases, unless stated otherwise.
Example B: Evaluation of Fungicidal Activity: Wheat Brown Rust (Puccinia triticina; Synonym: Puccinia recondita f sp. tritici; Bayer Code PUCCRT)
Wheat plants (variety ‘Yuma’) were grown from seed in a greenhouse in soil-less potting mix until the first leaf was fully emerged, with 7-10 seedlings per pot. These plants were inoculated with an aqueous spore suspension of Puccinia triticina after fungicide treatments. After inoculation, the plants were kept in a dark dew room with 100% relative humidity overnight to permit spores to germinate and infect the leaf. The plants were then transferred to a greenhouse for disease to develop. Fungicide formulation, application and disease assessment followed the procedures as described in Example A.

[2] = tested on: Rhynchosporium commune; experiment: Leaf blotch of barley, whole-plant fungicidal activity (RHYNSE); assay type: in vivo; settings: 24 h, 1DP (1 day protectant), read-out: % Disease Control Rating RHYNSE
Description: Technical grades of materials were dissolved in acetone, which were then mixed with nine volumes of water (H2O) containing 110 ppm Triton X-100. The fungicide solutions were applied onto wheat seedlings using an automated booth sprayer to run-off. All sprayed plants were allowed to air dry prior to further handling. All fungicides were evaluated using the aforementioned method for their activity vs. all target diseases, unless stated otherwise. Example D: Evaluation of Fungicidal Activity: Leaf Blotch of Barley (Rhynchosporium commune; Bayer Code […]) Barley plants (variety 'Harrington') were grown from seed in a greenhouse in soil-less potting mix until the first leaf was fully emerged, with 7-10 seedlings per pot. These plants were inoculated with an aqueous spore suspension of Rhynchosporium commune after fungicide treatments. After inoculation, the plants were kept in a dark dew room with 100% relative humidity for two days to permit spores to germinate and infect the leaf. The plants were then transferred to a greenhouse for disease to develop. Fungicide formulation and application were made as described in Example A. Disease assessment was conducted as described in Example A.

[3] = tested on: Zymoseptoria tritici; experiment: Septoria leaf blotch of wheat, whole-plant fungicidal activity (SEPTTR); assay type: in vivo, Zymoseptoria tritici on wheat plants (variety 'Yuma'); settings: read-out: % Disease Control Rating SEPTTR
Description: Example A: Evaluation of Fungicidal Activity: Septoria Leaf Blotch of Wheat (Zymoseptoria tritici; Bayer Code […]) Technical grades of materials were dissolved in acetone, which were then mixed with nine volumes of water (H2O) containing 110 ppm Triton X-100. The fungicide solutions were applied onto wheat seedlings using an automated booth sprayer to run-off. All sprayed plants were allowed to air dry prior to further handling. All fungicides were evaluated using the aforementioned method for their activity vs. all target diseases, unless stated otherwise. Wheat plants (variety 'Yuma') were grown from seed in a greenhouse in soil-less potting mix until the first leaf was fully emerged, with 7-10 seedlings per pot. These plants were inoculated with an aqueous spore suspension of Zymoseptoria tritici either 3 days prior to fungicide treatment (3 day curative; 3DC) or 1 day after fungicide treatment (1 day protectant; 1DP). After inoculation the plants were kept in 100% relative humidity for three days to permit spores to germinate and infect the leaf. The plants were then transferred to a greenhouse for disease to develop. When disease symptoms were fully expressed on the 1st leaves of untreated plants, infection levels were assessed on a scale of 0 to 100 percent disease severity. Percent disease control was calculated using the ratio of disease severity on treated plants relative to untreated plants.

[4] = tested on: Phakopsora pachyrhizi; experiment: Asian soybean rust, whole-plant fungicidal activity (PHAKPA); assay type: in vivo; settings: read-out: % Disease Control Rating PHAKPA
Description: Example C: Evaluation of Fungicidal Activity: Asian Soybean Rust (Phakopsora pachyrhizi; Bayer Code […]) Technical grades of materials were dissolved in acetone, which were then mixed with nine volumes of H2O containing 0.011% Tween-20. The fungicide solutions were applied onto soybean seedlings using an automated booth sprayer to run-off. All sprayed plants were allowed to air dry prior to further handling. Soybean plants (variety 'Williams 82') were grown in soil-less potting mix, with one plant per pot. Ten-day-old seedlings were used for testing. Plants were inoculated as described in Example A. Plants were incubated for 24 h in a dark dew room with 100% relative humidity then transferred to a growth room for disease to develop. Fungicide formulation and application were made as described in Example A. When disease symptoms were fully expressed, disease severity was assessed on the sprayed leaves on a scale of 0 to 100 percent. Percent disease control was calculated using the ratio of disease severity on treated plants relative to untreated plants.

CCN(C)/C=N/c1cc(C)c(C(=O)Cc2ccc(C(F)(F)F)cc2)cc1C [Compound 63]
pest or weed control at 200 ppm [1]: > 85% | pest or weed control at 200 ppm [2]: > 85% | pest or weed control at 200 ppm ([3]; 24 h, 1DP (1 day protectant)): > 85% | pest or weed control at 200 ppm ([3]; 72 h, 3DC (3 day curative)): 20 to 50% | pest or weed control at 200 ppm ([4]; 24 h, 1DP (1 day protectant)): > 85% | pest or weed control at 200 ppm ([4]; 72 h, 3DC (3 day curative)): > 85%

Cc1cc(C(=O)CC2CCCCC2)c(C)cc1/N=C/N(C)C(C)C [Compound 59]
pest or weed control at 200 ppm [1]: > 85% | pest or weed control at 200 ppm [2]: > 85% | pest or weed control at 200 ppm ([3]; 24 h, 1DP (1 day protectant)): > 85% | pest or weed control at 200 ppm ([3]; 72 h, 3DC (3 day curative)): > 85% | pest or weed control at 200 ppm ([4]; 24 h, 1DP (1 day protectant)): > 85% | pest or weed control at 200 ppm ([4]; 72 h, 3DC (3 day curative)): > 85%

CCN(C)/C(S)=N/c1cc(C)c(C(=O)CC2CCCC2)cc1C [Compound 94]
pest or weed control at 200 ppm [1]: > 85% | pest or weed control at 200 ppm [2]: > 85% | pest or weed control at 200 ppm ([3]; 24 h, 1DP (1 day protectant)): > 85% | pest or weed control at 200 ppm ([3]; 72 h, 3DC (3 day curative)): < 20% | pest or weed control at 200 ppm ([4]; 24 h, 1DP (1 day protectant)): > 85% | pest or weed control at 200 ppm ([4]; 72 h, 3DC (3 day curative)): > 85%

Cc1cc(C(=O)Cc2c(F)cc(F)cc2F)c(C)cc1/N=C/N(C)C [Compound 76]
pest or weed control at 200 ppm [1]: > 85% | pest or weed control at 200 ppm [2]: < 20% | pest or weed control at 200 ppm ([3]; 24 h, 1DP (1 day protectant)): < 20% | pest or weed control at 200 ppm ([3]; 72 h, 3DC (3 day curative)): < 20% | pest or weed control at 200 ppm ([4]; 24 h, 1DP (1 day protectant)): > 85%

Cc1cc(C(=O)CC2CCCC2)c(C)cc1/N=C1\CCCCN1C [Compound 92]
pest or weed control at 200 ppm [1]: > 85% | pest or weed control at 200 ppm [2]: 20 to 50% | pest or weed control at 200 ppm ([3]; 24 h, 1DP (1 day protectant)): < 20% | pest or weed control at 200 ppm ([3]; 72 h, 3DC (3 day curative)): < 20% | pest or weed control at 200 ppm ([4]; 24 h, 1DP (1 day protectant)): 50 to 85% | pest or weed control at 200 ppm ([4]; 72 h, 3DC (3 day curative)): 50 to 85%

CCN(C)/C=N/c1cc(C)c(C(=O)Cc2c(F)cc(F)cc2F)cc1C [Compound 23]
pest or weed control at 200 ppm [1]: > 85% | pest or weed control at 200 ppm [2]: > 85% | pest or weed control at 200 ppm ([3]; 24 h, 1DP (1 day protectant)): 20 to 50% | pest or weed control at 200 ppm ([3]; 72 h, 3DC (3 day curative)): < 20% | pest or weed control at 200 ppm ([4]; 24 h, 1DP (1 day protectant)): > 85% | pest or weed control at 200 ppm ([4]; 72 h, 3DC (3 day curative)): > 85%

CCN(/C=N/c1cc(C)c(C(=O)CC2CCCCC2)cc1C)CC [Compound 58]
pest or weed control at 200 ppm [1]: > 85% | pest or weed control at 200 ppm [2]: < 20% | pest or weed control at 200 ppm ([3]; 24 h, 1DP (1 day protectant)): 50 to 85% | pest or weed control at 200 ppm ([3]; 72 h, 3DC (3 day curative)): < 20% | pest or weed control at 200 ppm ([4]; 24 h, 1DP (1 day protectant)): > 85% | pest or weed control at 200 ppm ([4]; 72 h, 3DC (3 day curative)): > 85%

Cc1cc(C(=O)CC2CCCCC2)c(C)cc1/N=C/N(C)CC(F)(F)F [Compound 38]
pest or weed control at 200 ppm [1]: < 20% | pest or weed control at 200 ppm [2]: < 20% | pest or weed control at 200 ppm ([3]; 24 h, 1DP (1 day protectant)): < 20% | pest or weed control at 200 ppm ([3]; 72 h, 3DC (3 day curative)): < 20% | pest or weed control at 200 ppm ([4]; 24 h, 1DP (1 day protectant)): < 20% | pest or weed control at 200 ppm ([4]; 72 h, 3DC (3 day curative)): < 20%

CCN(C)/C=N/c1ccc(C(=O)Cc2ccc(C)cc2F)c(C)c1C [Compound 11]
pest or weed control at 200 ppm [1]: < 20% | pest or weed control at 200 ppm [2]: < 20% | pest or weed control at 200 ppm ([3]; 24 h, 1DP (1 day protectant)): < 20% | pest or weed control at 200 ppm ([3]; 72 h, 3DC (3 day curative)): < 20% | pest or weed control at 200 ppm ([4]; 24 h, 1DP (1 day protectant)): > 85% | pest or weed control at 200 ppm ([4]; 72 h, 3DC (3 day curative)): > 85%

CCN(C)/C=N/c1cc(C)c(C(=O)Cc2ccc(F)cc2F)cc1C [Compound 20]
pest or weed control at 200 ppm [1]: > 85% | pest or weed control at 200 ppm [2]: > 85% | pest or weed control at 200 ppm ([3]; 24 h, 1DP (1 day protectant)): < 20% | pest or weed control at 200 ppm ([3]; 72 h, 3DC (3 day curative)): < 20% | pest or weed control at 200 ppm ([4]; 24 h, 1DP (1 day protectant)): > 85% | pest or weed control at 200 ppm ([4]; 72 h, 3DC (3 day curative)): > 85%

CCc1cccc(CC(=O)c2cc(C)c(/N=C/N(C)CC)cc2C)c1 [Compound 70]
pest or weed control at 200 ppm [1]: > 85% | pest or weed control at 200 ppm [2]: > 85% | pest or weed control at 200 ppm ([3]; 24 h, 1DP (1 day protectant)): 50 to 85% | pest or weed control at 200 ppm ([3]; 72 h, 3DC (3 day curative)): < 20% | pest or weed control at 200 ppm ([4]; 24 h, 1DP (1 day protectant)): > 85% | pest or weed control at 200 ppm ([4]; 72 h, 3DC (3 day curative)): > 85%

CCN(C)/C=N/c1cc(C)c(C(=O)C2CCCCC2)cc1C [Compound 26]
pest or weed control at 200 ppm [1]: > 85% | pest or weed control at 200 ppm [2]: > 85% | pest or weed control at 200 ppm ([3]; 24 h, 1DP (1 day protectant)): > 85% | pest or weed control at 200 ppm ([3]; 72 h, 3DC (3 day curative)): 20 to 50% | pest or weed control at 200 ppm ([4]; 24 h, 1DP (1 day protectant)): > 85% | pest or weed control at 200 ppm ([4]; 72 h, 3DC (3 day curative)): > 85%
